In publication PMC6522510 (Nature Communications, 2019):
Structures can show the parent of a compound that is named as a salt. Where two headings read alike, the source gives them in different places.

What was measured:
Design in all cases: species or system AML cell lines (8); Primary HTS, single concentration about 10 uM, Cell Titer Glo viability; log10 luminescence, per cent inhibition relative to cycloheximide control
Conditions in all cases: 72 h, relative to cycloheximide control, log10 luminescence, inhibitor
CHRF288-11 = test system: CHRF288-11
CMK = test system: CMK
CMS = test system: CMS
M07e = test system: M07e
ML-2 = test system: ML-2
MOLM-13 = test system: MOLM-13
MV4-11 = test system: MV4-11
U937 = test system: U937

| SMILES | CHRF288-11 %inh (CHRF288-11; CHRF288-11 %inh, 10 µM) | CMK %inh (CMK; CMK %inh, 10 µM) | CMS %inh (CMS; CMS %inh, 10 µM) | M07e %inh (M07e; M07e %inh, 10 µM) | ML-2 %inh (ML-2; ML-2 %inh, 10 µM) | MOLM-13 %inh (MOLM-13; MOLM-13 %inh, 10 µM) | MV4-11 %inh (MV4-11; MV4-11 %inh, 10 µM) | U937 %inh (U937; U937 %inh, 10 µM) | CHRF288-11 %inh (CHRF288-11) | CMK %inh (CMK) | CMS %inh (CMS) | M07e %inh (M07e) | ML-2 %inh (ML-2) | MOLM-13 %inh (MOLM-13) | MV4-11 %inh (MV4-11) | U937 %inh (U937) |
| --- | --- | --- | --- | --- | --- | --- | --- | --- | --- | --- | --- | --- | --- | --- | --- | --- |
| O=C(O[C@H]1C[C@H]2CC[C@@H](C1)[N+]21CCCC1)C(O)(c1ccccc1)c1ccccc1 [SJ000556733-2, TROSPIUM CHLORIDE] | 0.2164% | -0.8375% | -2.193% | 4.258% | 4.125% | 0.236% | 1.274% | -0.2464% | – | – | – | – | – | – | – | – |
| Cc1cn([C@@H]2C[C@@H](O)[C@H](CO)O2)c(=O)[nH]c1=O [SJ000556735-1, TELBIVUDINE] | – | – | – | – | – | – | – | – | 5.146% | -3.078% | -2.406% | 0.6931% | 2.339% | -1.046% | 3.878% | 2.103% |
| CO[C@H]1/C=C/O[C@@]2(C)Oc3c(C)c(O)c4c(O)c(c(/C=N/N5CCN(C6CCCC6)CC5)c(O)c4c3C2=O)NC(=O)/C(C)=C\C=C\[C@H](C)[C@H](O)[C@@H](C)[C@@H](O)[C@@H](C)[C@H](OC(C)=O)[C@@H]1C [SJ000556738-1, RIFAPENTINE] | -0.1419% | -0.8493% | 9.958% | 1.814% | 6.792% | 5.251% | 4.97% | 33.42% | – | – | – | – | – | – | – | – |
| CO[C@H]1/C=C/O[C@@]2(C)Oc3c(C)c(O)c4c(O)c(c(/C=N/N5CCN(C6CCCC6)CC5)c(O)c4c3C2=O)NC(=O)/C(C)=C\C=C\[C@H](C)[C@H](O)[C@@H](C)[C@@H](O)[C@@H](C)[C@H](OC(C)=O)[C@@H]1C [SJ000556738-2, RIFAPENTINE] | -2.807% | -1.103% | 24.93% | 2.598% | 7.469% | 7.481% | 5.68% | 26.01% | – | – | – | – | – | – | – | – |
| C[C@@H]1C[C@H]2[C@@H]3C[C@H](F)C4=CC(=O)C=C[C@]4(C)[C@@]3(F)[C@@H](O)C[C@]2(C)[C@@]1(OC(=O)c1ccco1)C(=O)SCF [SJ000556747-1, FLUTICASONE FUROATE] | – | – | – | – | – | – | – | – | 5.244% | 4.028% | 42.17% | 0.03036% | 5.949% | 2.731% | 10.07% | 15.51% |
| Cc1c(F)c(N2CCNC(C)C2)cc2c1c(=O)c(C(=O)O)cn2C1CC1 (stereo not shown) [SJ000556748-1, GREPAFLOXACIN] | – | – | – | – | – | – | – | – | 7.335% | -2.149% | -1.062% | -0.4769% | -2.485% | 27.08% | -0.8156% | 0.03292% |
| Nc1nc(=O)n([C@@H]2CS[C@H](CO)O2)cc1F [SJ000556750-1, EMTRICITABINE] | – | – | – | – | – | – | – | – | 2.371% | 2.775% | -3.992% | -0.1929% | 2.01% | 20.59% | -2.268% | -2.394% |
| CCOCCn1c(N2CCCN(C)CC2)nc2ccccc21 [SJ000556751-1, EMEDASTINE DIFUMARATE] | – | – | – | – | – | – | – | – | -0.4103% | -0.9686% | -0.1534% | 0.9271% | 1.809% | 8.131% | -1.235% | 0.3803% |
| CCCCc1ncc(/C=C(\Cc2cccs2)C(=O)O)n1Cc1ccc(C(=O)O)cc1 [SJ000556755-1, EPROSARTAN MESYLATE] | – | – | – | – | – | – | – | – | 1.693% | 1.513% | 2.254% | 2.786% | 1.173% | -0.5594% | -5.649% | 2.452% |
| CO/N=C1\CN(c2nc3c(cc2F)c(=O)c(C(=O)O)cn3C2CC2)CC1CN (stereo not shown) [SJ000556758-1, GEMIFLOXACIN MESILATE] | – | – | – | – | – | – | – | – | 4.811% | 10.74% | 4.675% | 5.532% | 0.2536% | 8.66% | 8.469% | 9.491% |
| CCCCCCCN(CC)CCCC(O)c1ccc(NS(C)(=O)=O)cc1 (stereo not shown) [SJ000556760-1, IBUTILIDE FUMARATE] | – | – | – | – | – | – | – | – | 6.024% | 2.977% | 0.3403% | 2.78% | -1.379% | 2.626% | 3.1% | 0.6889% |
| COC(C)(C)CCCC(C)C/C=C/C(C)=C/C(=O)O (stereo not shown) [SJ000561041-1, METHOPRENE ACID] | – | – | – | – | – | – | – | – | 30.54% | 2.394% | -2.29% | -0.2291% | -0.2588% | -0.01315% | 6.95% | 1.555% |
| O=Cc1c2[nH]c3ccccc3c2cc2[nH]c3ccccc3c12 [SJ000561043-1, 6-FORMYLINDOLO [3,2-B] CARBAZOLE] | – | – | – | – | – | – | – | – | 8.34% | 0.1175% | 2.828% | 3.515% | 1.695% | 1.501% | 15.88% | -0.0231% |
| CC(C)(O)[C@H]1O[C@H]2CC[C@@]3(C)[C@@](O)(CC[C@H]4Cc5c([nH]c6ccccc56)[C@@]43C)C2=CC1=O [SJ000561050-1, PAXILLINE] | – | – | – | – | – | – | – | – | 3.611% | 7.96% | 1.09% | -0.09318% | 3.934% | 2.78% | 1.599% | 7.084% |
| CC(C)[C@@H](O)CC[C@@H](C)[C@H]1CC[C@H]2[C@@H]3CC=C4C[C@@H](O)CC[C@]4(C)[C@H]3CC[C@]12C [SJ000561051-1, 24(S)-HYDROXYCHOLESTEROL] | – | – | – | – | – | – | – | – | -3.422% | -0.3911% | -2.331% | -2.462% | 0.6767% | -1.323% | -0.7822% | -0.5103% |
| C[C@H](CC[C@@H]1OC1(C)C)[C@H]1CC[C@H]2[C@@H]3CC=C4C[C@@H](O)CC[C@]4(C)[C@H]3CC[C@]12C [SJ000561052-1, 24(S),25-EPOXYCHOLESTEROL] | – | – | – | – | – | – | – | – | 7.379% | 11.77% | 1.576% | 0.1627% | -2.235% | -3.183% | -1.379% | -2.032% |
| CC(C)=CCC[C@]1(C)[C@@H](CC=C(C)C)C[C@@]2(CC=C(C)C)C(=O)[C@]1(C(=O)C(C)C)C(=O)C(CC=C(C)C)=C2O [SJ000561062-1, HYPERFORIN] | – | – | – | – | – | – | – | – | 6.256% | 3.171% | -0.1771% | 1.526% | 4.019% | 0.05204% | 2.302% | 1.156% |
